Test systems include NCI-H522; HCT-116; SN12C; CAKI-1; HCT-15; MDA-MB-231; NCI-H460; MDA-MB-435; NCI-H226; PC-3; SK-MEL-28; TK-10; MDA-N; IGROV-1; SNB-19; LOX IMVI; MCF7; U-251; SK-MEL-2; ACHN.
Common to all, as to assay: NCI tumour cell line growth inhibition, 48 h

Each structure is given as a SMILES string.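 Values below derive from 48-hour exposures of cells grown in 96-well plates, with endpoints linearly interpolated between the two concentrations bracketing the appropriate inhibition level. Abbreviation: GI50, concentration required for 50% inhibition of growth.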 Calls of active or inactive are those of the source. No stated cut-off is given here; in the data, active = GI50 up to about 1.1 µM and inactive = higher.

For `CCOc1ccc(-n2c(=O)c3nn4c(=O)n(-c5ccc(OCC)cc5)c(=O)c4nn3c2=O)cc1`, the GI50 was > 100 µM (inactive) with NCI-H522; > 100 µM (inactive) in the experiment with HCT-116; > 100 µM (inactive) in the experiment with SN12C; > 100 µM (inactive) in the experiment on CAKI-1; more than 100 µM with HCT-15; 71.8 µM (inactive) in the experiment on MDA-MB-231. In addition, the GI50 in the experiment with NCI-H460, with MDA-MB-435, in the experiment with NCI-H226, in the experiment with PC-3, with SK-MEL-28 and in the experiment on TK-10 was > 100 µM (inactive) throughout. Besides, the GI50 was > 100 µM (inactive) in the experiment on MDA-N; > 100 µM (inactive) with IGROV-1; 63 µM (inactive) in the experiment on SNB-19; > 100 µM (inactive) in the experiment with LOX IMVI; > 100 µM (inactive) with MCF7; > 100 µM (inactive) in the experiment with U-251. Besides, the GI50 with SK-MEL-2 is 39.4 µM (inactive); in the experiment with ACHN, > 100 µM (inactive).
With `COC(=O)/C=C\C(C#N)(C#N)/N=C/c1cccc(OC)c1`, the GI50 is 1.38 µM (inactive) in the experiment with NCI-H522; 3.44 µM (inactive) in the experiment with HCT-116; 11.9 µM (inactive) in the experiment with SN12C; 1.92 µM (inactive) in the experiment with CAKI-1; 1.93 µM in the experiment on HCT-15; 13.2 µM (inactive) in the experiment on MDA-MB-231. Further, the GI50 in the experiment on NCI-H460 was 20 µM (inactive); with MDA-MB-435, 6.5 µM (inactive); in the experiment with NCI-H226, 14.3 µM (inactive); in the experiment with PC-3, 15.8 µM (inactive); with SK-MEL-28, 14.3 µM (inactive); with TK-10, 1.91 µM (inactive). Besides, the GI50 with MDA-N was 7.03 µM (inactive); in the experiment with IGROV-1 it was 11.7 µM (inactive); in the experiment on SNB-19, 23.3 µM (inactive); in the experiment on LOX IMVI, 7.16 µM (inactive); in the experiment on MCF7 it was 4.94 µM (inactive); with U-251, 15.9 µM (inactive). Also, the GI50 with SK-MEL-2 was 17.1 µM (inactive); with ACHN, 2.61 µM (inactive).
In the case of `Cc1ccc(C2=CC(=O)/C(=C\C(=O)c3ccc(Br)cc3)O2)c(C)c1`, the GI50 with NCI-H522 was 1.69 µM (inactive); with HCT-116, 7.64 µM (inactive); in the experiment on SN12C, 13.2 µM (inactive); in the experiment on CAKI-1, 3.04 µM (inactive); with HCT-15 it was 12.2 µM; in the experiment with MDA-MB-231, 9.31 µM (inactive). The GI50 with NCI-H460 is 26.5 µM (inactive); with MDA-MB-435, 13.6 µM (inactive); with NCI-H226, 10.9 µM (inactive); in the experiment with PC-3, 5.35 µM (inactive); in the experiment with SK-MEL-28, 17.2 µM (inactive); with TK-10, 3.83 µM (inactive). Moreover, the GI50 in the experiment on MDA-N is 6.11 µM (inactive); with IGROV-1 it was 18.4 µM (inactive); in the experiment with SNB-19, 18.7 µM (inactive); in the experiment on LOX IMVI it was 3.78 µM (inactive); in the experiment on MCF7, 5.33 µM (inactive); in the experiment on U-251 it was 18 µM (inactive). Further, the GI50 in the experiment on SK-MEL-2 was 49.1 µM (inactive); in the experiment with ACHN, 4.57 µM (inactive).

(Values after ChEMBL document CHEMBL1201862, “PubChem BioAssay data set” (2004).)
